According to patent US10202354B2, “Therapeutic compounds and uses thereof” (GENENTECH, INC., priority 2015, dated 2019):

These compounds were tested against Full length KDM2B (Homo sapiens (Human), UniProt Q8NHM5) (assay: KDM2B TR-FRET Assay for Determining Inhibitor IC50). Conditions: TR-FRET (HTRF), biotin-H3K36me2 peptide substrate.
Assay type: biochemical
Description: KDM2B TR-FRET Assay for Determining Inhibitor IC50
The KDM2B TR-FRET Assay described above represents an additional embodiment of the invention.

Full length KDM2B, sequence (Q8NHM5 whole entry): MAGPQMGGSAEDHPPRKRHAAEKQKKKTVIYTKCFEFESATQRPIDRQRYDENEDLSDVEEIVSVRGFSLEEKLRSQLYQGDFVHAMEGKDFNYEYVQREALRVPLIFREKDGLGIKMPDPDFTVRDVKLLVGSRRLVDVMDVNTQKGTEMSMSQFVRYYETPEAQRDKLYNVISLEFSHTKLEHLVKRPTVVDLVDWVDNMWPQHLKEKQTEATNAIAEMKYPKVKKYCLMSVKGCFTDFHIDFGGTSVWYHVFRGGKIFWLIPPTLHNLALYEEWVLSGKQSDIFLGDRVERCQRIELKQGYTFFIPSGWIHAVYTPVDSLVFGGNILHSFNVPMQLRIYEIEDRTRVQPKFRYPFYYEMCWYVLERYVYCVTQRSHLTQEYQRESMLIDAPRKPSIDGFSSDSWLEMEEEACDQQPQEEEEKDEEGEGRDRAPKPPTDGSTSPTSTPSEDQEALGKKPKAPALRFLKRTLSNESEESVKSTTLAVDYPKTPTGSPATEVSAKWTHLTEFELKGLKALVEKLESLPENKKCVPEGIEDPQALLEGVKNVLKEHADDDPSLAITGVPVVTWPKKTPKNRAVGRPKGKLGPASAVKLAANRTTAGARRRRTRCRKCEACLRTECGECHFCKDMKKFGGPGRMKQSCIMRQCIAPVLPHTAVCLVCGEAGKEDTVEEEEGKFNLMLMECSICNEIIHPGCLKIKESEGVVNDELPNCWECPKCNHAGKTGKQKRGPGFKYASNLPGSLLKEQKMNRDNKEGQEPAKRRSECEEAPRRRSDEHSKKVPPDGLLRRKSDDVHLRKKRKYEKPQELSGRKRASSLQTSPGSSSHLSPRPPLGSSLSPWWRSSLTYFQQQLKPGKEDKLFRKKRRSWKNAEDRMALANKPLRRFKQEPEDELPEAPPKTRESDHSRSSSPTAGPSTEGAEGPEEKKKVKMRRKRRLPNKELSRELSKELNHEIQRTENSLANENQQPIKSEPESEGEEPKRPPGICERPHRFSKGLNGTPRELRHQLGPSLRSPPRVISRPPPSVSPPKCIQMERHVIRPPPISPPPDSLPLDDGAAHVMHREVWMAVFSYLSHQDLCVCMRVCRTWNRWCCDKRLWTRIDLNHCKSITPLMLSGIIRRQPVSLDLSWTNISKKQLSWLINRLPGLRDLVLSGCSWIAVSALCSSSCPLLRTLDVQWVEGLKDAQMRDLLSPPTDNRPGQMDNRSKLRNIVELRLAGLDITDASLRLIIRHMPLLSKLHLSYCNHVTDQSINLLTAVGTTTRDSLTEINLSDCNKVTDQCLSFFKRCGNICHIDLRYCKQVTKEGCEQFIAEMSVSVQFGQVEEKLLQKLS

IC50	Structure (SMILES)
0.053 nM	N#Cc1ccccc1-c1ccc(S(=O)(=O)N2CCN=C2N2CCN(C3CCC3)CC2)cc1 [Example 1, 2-[4-[[2-(4-cyclobutylpiperazin-1-yl)-4,5-dihydroimidazol-1-yl]sulfonyl]phenyl]benzonitrile]
0.098 nM	COc1cccc(-c2ccc(S(=O)(=O)N3CCN=C3N3CCN(C4CCC4)CC3)cc2)c1 [Example 2, 1-cyclobutyl-4-[1-[4-(3-methoxyphenyl)phenyl]sulfonyl-4,5-dihydroimidazol-2-yl]piperazine]
0.08 nM	COc1ccc(-c2ccc(S(=O)(=O)N3CCN=C3N3CCN(C4CCC4)CC3)cc2)cc1 [Example 3, 1-cyclobutyl-4-[1-[4-(4-methoxyphenyl)phenyl]sulfonyl-4,5-dihydroimidazol-2-yl]piperazine]
0.102 nM	O=S(=O)(c1ccc(-c2ccccc2C(F)(F)F)cc1)N1CCN=C1N1CCN(C2CCC2)CC1 [Example 4, 1-cyclobutyl-4-[1-[4-[2-(trifluoromethyl)phenyl]phenyl]sulfonyl-4,5-dihydroimidazol-2-yl]piperazine]
0.097 nM	N#Cc1ccc(-c2ccc(S(=O)(=O)N3CCN=C3N3CCN(C4CCC4)CC3)cc2)cc1 [Example 5, 4-[4-[[2-(4-cyclobutylpiperazin-1-yl)-4,5-dihydroimidazol-1-yl]sulfonyl]phenyl]benzonitrile]
0.102 nM	O=S(=O)(c1ccc(-c2ccccn2)cc1)N1CCN=C1N1CCN(C2CCC2)CC1 [Example 6, 1-cyclobutyl-4-[1-[4-(2-pyridyl)phenyl]sulfonyl-4,5-dihydroimidazol-2-yl]piperazine]
0.151 nM	O=S(=O)(c1ccc(-c2cccnc2)cc1)N1CCN=C1N1CCN(C2CCC2)CC1 [Example 7, 1-cyclobutyl-4-[1-[4-(3-pyridyl)phenyl]sulfonyl-4,5-dihydroimidazol-2-yl]piperazine]
0.077 nM	Cc1ccccc1-c1ccc(S(=O)(=O)N2CCN=C2N2CCN(C3CCC3)CC2)cc1 [Example 8, 1-cyclobutyl-4-[1-[4-(o-tolyl)phenyl]sulfonyl-4,5-dihydroimidazol-2-yl]piperazine]
0.074 nM	Cc1cccc(-c2ccc(S(=O)(=O)N3CCN=C3N3CCN(C4CCC4)CC3)cc2)c1 [Example 9, 1-cyclobutyl-4-[1-[4-(m-tolyl)phenyl]sulfonyl-4,5-dihydroimidazol-2-yl]piperazine]
0.145 nM	Cc1ccc(-c2ccc(S(=O)(=O)N3CCN=C3N3CCN(C4CCC4)CC3)cc2)cc1 [Example 10, 1-cyclobutyl-4-[1-[4-(p-tolyl)phenyl]sulfonyl-4,5-dihydroimidazol-2-yl]piperazine]
0.134 nM	O=S(=O)(c1ccc(-c2cccc(C(F)(F)F)c2)cc1)N1CCN=C1N1CCN(C2CCC2)CC1 [Example 11, 1-cyclobutyl-4-[1-[4-[3-(trifluoromethyl)phenyl]phenyl]sulfonyl-4,5-dihydroimidazol-2-yl]piperazine]
0.38 nM	O=S(=O)(c1ccc(-c2ccc(C(F)(F)F)cc2)cc1)N1CCN=C1N1CCN(C2CCC2)CC1 [Example 12, 1-cyclobutyl-4-[1-[4-[4-(trifluoromethyl)phenyl]phenyl]sulfonyl-4,5-dihydroimidazol-2-yl]piperazine]
0.048 nM	O=S(=O)(c1ccc(-c2ccccc2)cc1)N1CCN=C1N1CCN(C2CCC2)CC1 [Example 14, 1-cyclobutyl-4-[1-(4-phenylphenyl)sulfonyl-4,5-dihydroimidazol-2-yl]piperazine]
0.037 nM	O=S(=O)(c1ccc(-c2ccccc2O)cc1)N1CCN=C1N1CCN(C2CCC2)CC1 [Example 15, 2-[4-[[2-(4-cyclobutylpiperazin-1-yl)-4,5-dihydroimidazol-1-yl]sulfonyl]phenyl]phenol]
0.034 nM	O=S(=O)(c1ccc(-c2cccc(O)c2)cc1)N1CCN=C1N1CCN(C2CCC2)CC1 [Example 16, 3-[4-[[2-(4-cyclobutylpiperazin-1-yl)-4,5-dihydroimidazol-1-yl]sulfonyl]phenyl]phenol]
0.021 nM	O=S(=O)(c1ccc(-c2ccc(O)cc2)cc1)N1CCN=C1N1CCN(C2CCC2)CC1 [Example 17, 4-[4-[[2-(4-cyclobutylpiperazin-1-yl)-4,5-dihydroimidazol-1-yl]sulfonyl]phenyl]phenol]
0.095 nM	O=S(=O)(c1ccc(-c2ccncc2)cc1)N1CCN=C1N1CCN(C2CCC2)CC1 [Example 18, 1-cyclobutyl-4-[1-[4-(4-pyridyl)phenyl]sulfonyl-4,5-dihydroimidazol-2-yl]piperazine]
0.027 nM	O=S(=O)(c1ccc(-c2cccs2)cc1)N1CCN=C1N1CCN(C2CCC2)CC1 [Example 19, 1-cyclobutyl-4-[1-[4-(2-thienyl)phenyl]sulfonyl-4,5-dihydroimidazol-2-yl]piperazine]
0.021 nM	O=S(=O)(c1ccc(-c2ccsc2)cc1)N1CCN=C1N1CCN(C2CCC2)CC1 [Example 20, 1-cyclobutyl-4-[1-[4-(3-thienyl)phenyl]sulfonyl-4,5-dihydroimidazol-2-yl]piperazine]

IC50	Structure (SMILES)
0.084 nM	O=S(=O)(c1ccc(-c2ccccc2Cl)cc1)N1CCN=C1N1CCN(C2CCC2)CC1 [Example 21, 1-[1-[4-(2-chlorophenyl)phenyl]sulfonyl-4,5-dihydroimidazol-2-yl]-4-cyclobutyl-piperazine]
0.12 nM	O=S(=O)(c1ccc(-c2cccc(Cl)c2)cc1)N1CCN=C1N1CCN(C2CCC2)CC1 [Example 22, 1-[1-[4-(3-chlorophenyl)phenyl]sulfonyl-4,5-dihydroimidazol-2-yl]-4-cyclobutyl-piperazine]
0.275 nM	O=S(=O)(c1ccc(-c2ccc(Cl)cc2)cc1)N1CCN=C1N1CCN(C2CCC2)CC1 [Example 23, 1-[1-[4-(4-chlorophenyl)phenyl]sulfonyl-4,5-dihydroimidazol-2-yl]-4-cyclobutyl-piperazine]
0.05 nM	COc1ccccc1-c1ccc(S(=O)(=O)N2CCN=C2N2CCN(C3CCC3)CC2)cc1 [Example 24, 1-cyclobutyl-4-[1-[4-(2-methoxyphenyl)phenyl]sulfonyl-4,5-dihydroimidazol-2-yl]piperazine]
0.046 nM	O=S(=O)(c1ccc(-c2ccccc2F)cc1)N1CCN=C1N1CCN(C2CCC2)CC1 [Example 25, 1-cyclobutyl-4-[1-[4-(2-fluorophenyl)phenyl]sulfonyl-4,5-dihydroimidazol-2-yl]piperazine]
0.138 nM	O=S(=O)(c1ccc(-c2cccc(F)c2)cc1)N1CCN=C1N1CCN(C2CCC2)CC1 [Example 26, 1-cyclobutyl-4-[1-[4-(3-fluorophenyl)phenyl]sulfonyl-4,5-dihydroimidazol-2-yl]piperazine]
0.071 nM	O=S(=O)(c1ccc(-c2ccc(F)cc2)cc1)N1CCN=C1N1CCN(C2CCC2)CC1 [Example 27, 1-cyclobutyl-4-[1-[4-(4-fluorophenyl)phenyl]sulfonyl-4,5-dihydroimidazol-2-yl]piperazine]
0.049 nM	Cn1ccc(-c2ccc(S(=O)(=O)N3CCN=C3N3CCN(C4CCC4)CC3)cc2)n1 [Example 28, 1-cyclobutyl-4-[1-[4-(1-methylpyrazol-3-yl)phenyl]sulfonyl-4,5-dihydroimidazol-2-yl]piperazine]
0.049 nM	Cn1nccc1-c1ccc(S(=O)(=O)N2CCN=C2N2CCN(C3CCC3)CC2)cc1 [Example 29, 1-cyclobutyl-4-[1-[4-(2-methylpyrazol-3-yl)phenyl]sulfonyl-4,5-dihydroimidazol-2-yl]piperazine]
0.06 nM	O=S(=O)(c1ccc(-c2cncnc2)cc1)N1CCN=C1N1CCN(C2CCC2)CC1 [Example 30, 5-[4-[[2-(4-cyclobutylpiperazin-1-yl)-4,5-dihydroimidazol-1-yl]sulfonyl]phenyl]pyrimidine]
0.043 nM	CC(C)c1ccc(S(=O)(=O)N2CCN=C2N2CCN(C3CCC3)CC2)cc1 [Example 31, 1-cyclobutyl-4-(1-((4-isopropylphenyl)sulfonyl)-4,5-dihydro-1H-imidazol-2-yl)piperazine]
0.016 nM	O=S(=O)(c1ccc2c(c1)CCCC2)N1CCN=C1N1CCN(C2CCC2)CC1 [Example 32, 1-cyclobutyl-4-(1-tetralin-6-ylsulfonyl-4,5-dihydroimidazol-2-yl)piperazine]
8.51 nM	CCN1CCN(C2=NCCN2S(=O)(=O)c2ccccc2OC(F)(F)F)CC1 [Example 33, 1-ethyl-4-[1-[2-(trifluoromethoxy)phenyl]sulfonyl-4,5-dihydroimidazol-2-yl]piperazine]
0.058 nM	O=S(=O)(c1ccc(C2CC2)cc1)N1CCN=C1N1CCN(C2CCC2)CC1 [Example 34, 1-cyclobutyl-4-[1-(4-cyclopropylphenyl)sulfonyl-4,5-dihydroimidazol-2-yl]piperazine]
0.087 nM	O=S(=O)(c1cccc(C2CC2)c1)N1CCN=C1N1CCN(C2CCC2)CC1 [Example 35, 1-cyclobutyl-4-[1-(3-cyclopropylphenyl)sulfonyl-4,5-dihydroimidazol-2-yl]piperazine]
0.13 nM	N#Cc1ccc2cc(S(=O)(=O)N3CCN=C3N3CCN(C4CCC4)CC3)ccc2c1 [Example 36, 6-[[2-(4-cyclobutylpiperazin-1-yl)-4,5-dihydroimidazol-1-yl]sulfonyl]naphthalene-2-carbonitrile]
0.689 nM	CC(C)c1ccc(S(=O)(=O)N2CCN=C2N2CCN(C3CCC3)C(C)C2)cc1 (stereo not drawn) [Example 37, 1-cyclobutyl-4-[1-(4-isopropylphenyl)sulfonyl-4,5-dihydroimidazol-2-yl]-2-methyl-piperazine]
0.492 nM	CC(C)c1ccc(S(=O)(=O)N2CCN=C2N2CCN(CC3CC3C)CC2)cc1 (stereo not drawn) [Example 38, 1-[1-(4-isopropylphenyl)sulfonyl-4,5-dihydroimidazol-2-yl]-4-[(2-methylcyclopropyl)methyl]piperazine]
0.86 nM	CC1CC(N2CCN(C3=NCCN3S(=O)(=O)c3ccc(C(C)C)cc3)CC2)C1 (stereo not drawn) [Example 39, 1-[1-(4-isopropylphenyl)sulfonyl-4,5-dihydroimidazol-2-yl]-4-(3-methylcyclobutyl)piperazine]

Structure (SMILES)	IC50
N#Cc1cccc(-c2ccc(S(=O)(=O)N3CCN=C3N3CCN(C4CCC4)CC3)cc2)c1 [Example 13]	0.145 nM
